Reference: patent publication US20110014291A1, “Novel Polymorphs of Bosentan” (ACTAVIS GROUP PTC EHF, priority 2007, published 2011)

Experiment: dissolution properties of the solid form
Assay type: physicochemical
Conditions: conditions not given

COc1ccccc1Oc1c(NS(=O)(=O)c2ccc(C(C)(C)C)cc2)nc(-c2ncccn2)nc1OCCO [amorphous form, bosentan]
dissolution properties: advantageous dissolution properties
